Reference: patent publication US6783949B1, “Processes for determining whether a test substance contains lipases or lipase inhibitors” (Aventis Pharma Deutschland GmbH, priority 1999, dated 2004)
Like-named read-outs stand apart in the source and are kept apart here.

Columns and labels:
[1] = target: T1, HSL (Rattus norvegicus, UniProt P15304); assay: Indirect NAG assay (extinction increase at 481 nm); assay type: biochemical; conditions: for Absorption at 481 nm: HSL 20 μg, 60 min, NAG 0.05 mg/ml
T1 construct: The partially purified HSL can be stored at −70° C. for 4 to 6 weeks; from tissue; host or cells: rat epididymal fat cells (male Wistar rats)
T1 sequence (P15304 1-768 isoform P15304-2): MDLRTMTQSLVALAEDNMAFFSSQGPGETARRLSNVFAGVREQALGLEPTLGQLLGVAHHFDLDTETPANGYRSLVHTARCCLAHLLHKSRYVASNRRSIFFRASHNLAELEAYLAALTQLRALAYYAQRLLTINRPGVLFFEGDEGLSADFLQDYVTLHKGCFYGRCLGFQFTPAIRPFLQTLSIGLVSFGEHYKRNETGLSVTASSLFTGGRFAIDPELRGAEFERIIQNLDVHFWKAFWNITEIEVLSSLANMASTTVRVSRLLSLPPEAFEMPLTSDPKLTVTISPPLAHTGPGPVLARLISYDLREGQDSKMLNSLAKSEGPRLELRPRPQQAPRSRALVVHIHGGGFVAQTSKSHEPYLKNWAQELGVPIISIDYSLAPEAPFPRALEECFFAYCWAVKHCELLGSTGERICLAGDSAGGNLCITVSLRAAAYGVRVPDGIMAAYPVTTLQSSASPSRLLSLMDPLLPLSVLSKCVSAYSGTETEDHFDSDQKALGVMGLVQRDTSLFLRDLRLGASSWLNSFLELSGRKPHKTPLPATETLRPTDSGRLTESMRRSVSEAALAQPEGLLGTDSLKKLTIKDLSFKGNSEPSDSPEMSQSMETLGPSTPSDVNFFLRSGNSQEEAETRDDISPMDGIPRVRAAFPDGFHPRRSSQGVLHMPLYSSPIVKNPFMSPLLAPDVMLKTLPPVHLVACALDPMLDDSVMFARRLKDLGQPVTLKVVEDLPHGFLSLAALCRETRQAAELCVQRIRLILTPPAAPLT
Protocol: A typical reaction is carried out at 30° C. for 60 min, for example in 1.5 ml Eppendorf vessels or 96-hole plates. […] 180 μl of the substrate solution (20 μg/ml of phosphatidylcholine, 10 μg/ml of phosphatidylinositol, 50 μg/ml of NAG in assay buffer) are added. After a preincubation for 15 min at 30° C., 20 μl of HSL in assay buffer are pipetted in and the extinction is immediately measured (see above) at 481 nm in a cuvette photometer (0.5 ml cuvette) or microtiter plate reader. After a certain incubation time, which is variable and depends on the chosen enzyme concentration and can be between 2 and 240 minutes, in this case incubation at 30° C. for 60 min, the extinction is measured again. The increase in the extinction in the yellow region, in this case at 481 nm, is a measure of the enzyme activity.
Isolated rat fat cells are obtained from epididymal fatty tissue from untreated male rats (Wistar, 220-250 g) by collagenase treatment according to published processes. The fat cells from 10 rats are washed three times by flotation with 50 ml each of homogenization buffer ([…], pH 7.4, 0.25 M sucrose, 1 mM ethylenediamine-N,N,N′,N′-tetraacetic acid (EDTA), 1 mM dithiothreitol (DTT), 10 μg/ml of leupeptin, 10 μg/ml of antipain, 20 μg/ml of pepstatin) and finally taken up in 10 ml of homogenization buffer. The fat cells are homogenized in a Teflon-in-glass homogenizer (Braun-Melsungen) by 10 strokes at 1500 rpm and 15° C. The homogenizate is centrifuged (Sorvall SM24 tubes, 5000 rpm, 10 min, 4° C.). The […] between the overlying fatty layer and the pellet is removed and the centrifugation is repeated. The […] resulting from this is centrifuged again (Sorvall SM24 tubes, 20,000 rpm, 45 min, 4° C.). […] After incubation for 60 min at 4° C. (shake at intervals of 15 min), the batch is centrifuged (Sorvall SM24 tubes, 3000 rpm, 10 min, 4° C.). The supernatant is brought to pH 5.2 by addition of glacial acetic acid and incubated at 4° C. for 30 min. […] The suspension is dialyzed overnight at 4° C. against 25 mM TRIS/HCl, pH 7.4, 50% glycerol, 1 mM DTT, and 10 μg/ml of leupeptin, pepstatin, and antipain and then applied to a hydroxylapatite column (0.1 g per 1 ml of suspension, equilibrated with 10 mM potassium phosphate, pH 7.0, 30% glycerol, 1 mM DTT). The column is washed with four volumes of equilibration buffer at a flow rate of 20 to 30 ml/h. The HSL is eluted with a volume of equilibration buffer which contains 0.5 M potassium phosphate, then dialyzed (see above) and concentrated 5 to 10 times by ultrafiltration (Amicon Diaflo PM 10 filter) at 4° C. The partially purified HSL can be stored at −70° C. for 4 to 6 weeks.
6 mg of phosphatidylcholine and 6 mg of phosphatidylinositol are dissolved in 1 ml of chloroform each. 10 mg of NAG are dissolved in 1 ml of chloroform. […] The chloroform (225 μl total volume) is completely removed by overblowing with a stream of N2. The dried substrate can be stored at 4° C. for up to three days. For the preparation of the phospholipid vesicles/micelles having intercalated NAG (on the test day), the dried substrate is taken up in 20 ml of assay buffer (25 mM TRIS/HCl, pH 7.4; 150 mM NaCl) and two ultrasonic treatments with an ultrasonic probe (Branson Sonifier type 11, standard microtip): 1st treatment setting 2, 2×1 min, in between in each case 1 min on ice; 2nd treatment setting 4, 2×1 min, in between in each case 1 min on ice. […] Before use as a substrate (within the next 2 h), the solution is additionally incubated on ice for 15 min.
The assay is carried out at 30° C. for 60 min in 1.5 ml Eppendorf vessels or 96-hole plates.

[2] = target: T2, lipases, preferably HSL (Rattus norvegicus, UniProt P15304); assay: Synthesized NBD-acylglycerides as substrates of lipases; assay type: biochemical
T2 sequence (P15304 1-768 isoform P15304-2): T1 sequence (P15304 1-768 isoform P15304-2)

[3] = Substrate stability towards detergents and solvents (extinction at 550 nm); assay type: physicochemical; conditions: for Absorption at 550 nm: NAG 0.05 mg/ml, 37° C., 180 min

Molecule | Effect on the HSL activity [1] | Activity as substrate of lipases [2] | Absorption at 550 nm ([3]; agent 0.05 %) [arb. units] | Absorption at 550 nm ([3]; agent 0.1 %) [arb. units] | Absorption at 550 nm ([3]; agent 0.2 %) [arb. units] | Absorption at 550 nm ([3]; agent 0.5 %) [arb. units] | Absorption at 550 nm ([3]; agent 1 %) [arb. units] | Absorption at 550 nm ([3]; agent 2 %) [arb. units] | Absorption at 550 nm ([3]; agent 5 %) [arb. units] | Absorption at 550 nm ([3]; agent 10 %) [arb. units] | further results
CC(C)=O [acetone] | increase in the HSL activity |  |  |  |  |  |  |  |  |  | 
CC(=O)OCC(COC(=O)CCCCCCCCCCCNc1ccc([N+](=O)[O-])c2nonc12)OC(C)=O (stereo not drawn) [Compound (4), 2-Acetoxy-3-[12-(7-nitrobenzo[1,2,5]oxadiazol-4-ylamino)-dodecanoyloxy]propyl acetate] |  | decrease in activity |  |  |  |  |  |  |  |  | 
C[S+](C)[O-] [DMSO, Dimethyl sulfoxide] |  |  | 3003 ± 259 | 3199 ± 302 | 2984 ± 273 | 3055 ± 289 | 2845 ± 254 | 2317 ± 266 | 1432 ± 187 | 372 ± 51 | Reduction of the enzyme activity ([1]; 0.5% agent): 10%; Decrease in the enzyme activity (arithmetically) ([1]; 1% agent, corrected for substrate dissolution): 20%; Absorption at 481 nm ([1]; agent 0.05 %): 3423 ± 286 arb. units; Absorption at 481 nm ([1]; agent 0.1 %): 3320 ± 319 arb. units; Absorption at 481 nm ([1]; agent 0.2 %): 3301 ± 276 arb. units; Absorption at 481 nm ([1]; agent 0.5 %): 3199 ± 235 arb. units; Absorption at 481 nm ([1]; agent 1 %): 3156 ± 196 arb. units; Absorption at 481 nm ([1]; agent 2 %): 1488 ± 213 arb. units; Absorption at 481 nm ([1]; agent 5 %): 945 ± 169 arb. units; Absorption at 481 nm ([1]; agent 10 %): 272 ± 42 arb. units; Reduction of the amount of released NBD-FA ([1]; up to 1% agent): approximately 10%; Decrease of the extinction (amount of substrate) ([3]; 1% agent): 10%
CO [Methanol] | increase in the HSL activity |  | 3056 ± 243 | 3102 ± 276 | 2945 ± 241 | 2683 ± 210 | 2534 ± 191 | 1985 ± 165 | 1438 ± 121 | 475 ± 92 | 
CCCCCCCCCCCCOS(=O)(=O)[O-].[Na+] [SDS, Sodium dodecyl sulfate] |  |  | 3063 ± 288 | 2935 ± 254 | 2769 ± 275 | 2506 ± 301 | 2296 ± 252 | 1413 ± 178 | 603 ± 89 | 102 ± 12 | 
CCCCCCCCCCCCCCCC(=O)OCC(COC(=O)CCCCCCCCCCCNc1ccc([N+](=O)[O-])c2nonc12)OC(C)=O (stereo not drawn) [Compound (7), 2-Acetyloxy-3-[12-(7-nitrobenzo[1,2,5]oxadiazol-4-ylamino)-dodecanoyloxy]propyl hexadecanoate] |  | decrease in activity |  |  |  |  |  |  |  |  | 
2-Hydroxy-3-[12-(7-nitrobenzo[1,2,5]oxadiazol-4-ylamino)-odecanoyloxy]propyl hexadecanoate [Compound (6)] |  | decrease in activity |  |  |  |  |  |  |  |  | 
O=C(CCCCCCCCCCCNc1ccc([N+](=O)[O-])c2nonc12)OC[C@@H](O)CO [(3a), (S)-2,3-Dihydroxypropyl 12-(7-nitrobenzo[1,2,5]oxadiazol-4-ylamino) dodecanoate] |  | identical biological activity |  |  |  |  |  |  |  |  | 
CCO [Ethanol] |  |  | 3147 ± 288 | 3056 ± 213 | 3097 ± 253 | 2995 ± 231 | 2834 ± 256 | 2510 ± 194 | 1935 ± 163 | 873 ± 103 | Absorption at 481 nm ([1]; agent 0.05 %): 3776 ± 253 arb. units; Absorption at 481 nm ([1]; agent 0.1 %): 4093 ± 387 arb. units; Absorption at 481 nm ([1]; agent 0.2 %): 4894 ± 325 arb. units; Absorption at 481 nm ([1]; agent 0.5 %): 4231 ± 296 arb. units; Absorption at 481 nm ([1]; agent 1 %): 3541 ± 294 arb. units; Absorption at 481 nm ([1]; agent 2 %): 2143 ± 215 arb. units; Absorption at 481 nm ([1]; agent 5 %): 1327 ± 143 arb. units; Absorption at 481 nm ([1]; agent 10 %): 423 ± 55 arb. units; Effect on the HSL activity ([1]; between 0.1 and 1% agent): increase in the HSL activity
Triton ® X-100 [TX-100] | increase in the HSL activity |  | 3166 ± 308 | 3247 ± 253 | 3119 ± 277 | 2954 ± 248 | 2154 ± 199 | 956 ± 101 | 489 ± 77 | 167 ± 45 | 
CN(C)C=O [DMF, N,N-Dimethylformamide] | significant loss in activity |  | 3121 ± 294 | 2655 ± 308 | 1952 ± 299 | 1234 ± 234 | 654 ± 112 | 251 ± 82 | 105 ± 42 | 38 ± 10 | NAG released from the phospholipid/vesicle structures ([3]; 1% agent): over 80%
